Assay results: EP0623340B1, “Use of hydroxy or dihydroxynaphthalene in the preparation of a cosmetic or dermatological composition for skin whitening” (L'OREAL, priority 1993, dated 1994)

The molecules below were run on tyrosinase de champignons (assay: in vitro tyrosinase activity inhibition test (dopachrome formation followed at 475 nm)). Conditions: lowering of maximal dopachrome formed (OD 475 nm at plateau) vs no inhibitor; inhibitor at 50 % molaire relative to tyrosine; pH 6,5; 25°C.
Assay type: biochemical
Text: Certains des composés de formule générale (I) ont été étudiés comparativement à l'hydroquinone à quantité molaire équivalente dans le test d'inhibition in vitro de l'activité de la tyrosinase.
Selon ce test on suit par spectrométrie visible à 475 nm la quantité de dopachrome formée au cours de la chaîne de réactions de transformation de la tyrosine en mélanines. Ces réactions sont catalysées in vitro par la tyrosinase de champignons, en présence d'un co-substrat réducteur (par exemple la L-dopa en petite quantité) pour initier la réaction d'hydroxylation de la L-tyrosine en L-dopa, laquelle est ensuite oxydée catalytiquement en dopaquinone puis en dopachrome, produit intermédiaire avant les réactions d'oxydation non enzymatiques aboutissant à la formation des mélanines.
On mesure donc la concentration en dopachrome formé au cours du temps en présence et en absence de l'inhibiteur.
Les concentrations en inhibiteurs sont fixées à 50 % molaire par rapport à la concentration en tyrosine dans le milieu réactionnel.
On exprime l'effet d'inhibition par l'abaissement de la quantité maximale de dopachrome formée (valeur de densité optique à 475 nm lue au plateau de la courbe) par rapport à la quantité obtenue en l'absence d'inhibiteur.
• A - Tampon phosphate 0,1 M pH = 6,5 (Tween 20 à 1 %) • B - Solution mère de L-tyrosine à 2.10^-3 M dans A • C - Solution mère de L-dopa à 10^-4 M dans A • D - Solution mère de tyrosinase de champignons à 2.400 unités/ml dans A • E - Solution mère de l'inhibiteur à 10^-2 M dans A (les solutions C et D sont à préparer le jour même)
• cuve de référence : 3 ml de A • cuve d'essai : 1 ml de B 0,1 ml de C 1,85ml de A + E • homogénéiser et équilibrer à 25°C • ajouter 0,05 ml de D • mélanger rapidement et observer la cinétique par la mesure de l'absorbance à 475 nm en fonction du temps.

| SMILES | % change in maximal dopachrome formed vs no inhibitor |
| --- | --- |
| Oc1ccc2c(O)cccc2c1 [[drawing] r3] | -47% |
| Oc1ccc2cc(O)ccc2c1 [[drawing] r4] | -91% |
| Oc1ccc(O)cc1 [hydroquinone, reference compound] | -33% |
